Like-named read-outs stand apart in the source and are kept apart here.
Columns and labels:
Avena HPPD SEQ ID No 2 = Avena HPPD SEQ ID No 2 (Avena sativa, UniProt A0ACD5V6K6); test: Determination of HPPD activity in presence of N-(1,3,4-Oxadiazol-2-yl)arylcarboxamides (pI50); assay type: biochemical; details: negative log of molar concentration; inhibitor 0.1 to 100 μM; room temperature; 600 μM HPP
Experimental: (§1) HPPD activity was measured at room temperature by adding appropriate amounts of HPPD to a solution of 200 mM Tris-HCl pH 7.6, 10 mM ascorbate, 20 μM FeSO4, 650 units of catalase, 8 μg HGA dioxygenase (HGA: homogentisate) and 600 μM HPP in a total volume of 1 ml. Initial reaction rates in the absence or presence of inhibitors were determined from the increase in absorbance at 318 nm due to the formation of maleylacetoacetate (ϵ318=11,900 M−1 cm−1). pI50-values (the negative log values of the concentration of inhibitor necessary to inhibit 50% of the enzyme activity in molar concentration were determined from dose-response plots of HPPD activity versus inhibitor concentrations tested (0.1 to 100 μM) using the 4 Parameter Logistic Model or Sigmoidal Dose-Response Model of the ID Business Solutions Ltd. XLfit software suite. Due to the UV absorption of the HPPD inhibitors tested, inhibitor concentrations >100 μM could not be tested. In cases, the symbol “>” is used this means that the value was far higher than the one indicated but could not be precisely calculated within in the range of concentration of inhibitor tested.
(§2) In the 1st column of Table 8, the chemical compound employed in the assay is named (according to the numbering of the Tables 1 to 7, above). In columns 2, 3, 4, and 5 the pI50-values of the corresponding chemical compounds against various HPPD enzymes (name and SEQ ID Nos are indicated, respectively) are given.

FMP 37 SEQ ID No 9 = FMP 37 SEQ ID No 9 (Blepharisma japonicum, UniProt A8R3H6); test: as above; assay type: biochemical; details: negative log of molar concentration; inhibitor 0.1 to 100 μM; room temperature; 600 μM HPP
Experimental: as §1, §2

[1] = molecular target: PfHPPD Evo 40 SEQ ID No 27 (Pseudomonas sp., UniProt P80064, A172V/A339E/A53E/D148E/D45N/E105D/E287Q/E300V/E334P/F143Y/G286D/G335S/H150N/H254A/H63N/I158V/I187A/I249V/K92N/L18F/N24G/N280D/S245T/S257K/S301E/T205S/V65I); test: biochemical; parameters: species or system Pseudomonas fluorescens
[2] = molecular target: PfHPPD Evo 41 SEQ ID No 29 (Pseudomonas sp., UniProt P80064, A172V/A339Q/A53E/D148E/D45N/E105D/E287Q/E300V/E334P/F143Y/G286D/G335W/H150N/H254A/H63N/I158V/I187A/I249V/K338A/K92N/L18F/N24G/N280D/S245T/S257K/S301E/T205S/V65I); test: biochemical; parameters: species or system Pseudomonas fluorescens
wild type soybean Merlin = assay type: in vivo; details: 14 days after treatment, total 4
wild type soybean Thorne = assay type: in vivo; details: 14 days after treatment, total 4
[3] = test system: T2 soybean events expressing PfHPPD-Evo33; assay type: in vivo; details: 14 days after treatment
[4] = test system: T2 soybean events expressing PfHPPD-Evo40; assay type: in vivo; details: 14 days after treatment
[5] = test system: T2 soybean events expressing PfHPPD-W336 (PfHPPD-G336W); assay type: in vivo; details: 14 days after treatment
[6] = test system: T3 cotton events expressing PfHPPD-Evo33; assay type: in vivo; details: 200 g Al/ha, post-emergence V3, scored after 14 days, field

Chain of PfHPPD Evo 40 SEQ ID No 27 (P80064 1-354 with tags or gaps with the stated changes limits assumed): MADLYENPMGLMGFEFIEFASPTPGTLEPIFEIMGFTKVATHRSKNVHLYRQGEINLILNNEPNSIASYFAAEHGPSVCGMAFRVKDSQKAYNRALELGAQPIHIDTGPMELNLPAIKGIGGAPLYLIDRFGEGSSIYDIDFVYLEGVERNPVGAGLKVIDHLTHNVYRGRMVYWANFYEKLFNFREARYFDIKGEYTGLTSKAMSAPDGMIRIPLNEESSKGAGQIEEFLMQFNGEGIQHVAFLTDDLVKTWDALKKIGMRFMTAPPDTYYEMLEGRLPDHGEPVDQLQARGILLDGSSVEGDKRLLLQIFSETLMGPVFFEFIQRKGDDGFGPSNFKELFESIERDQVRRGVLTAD
Chain of Avena HPPD SEQ ID No 2 (A0ACD5V6K6 entry or part of it): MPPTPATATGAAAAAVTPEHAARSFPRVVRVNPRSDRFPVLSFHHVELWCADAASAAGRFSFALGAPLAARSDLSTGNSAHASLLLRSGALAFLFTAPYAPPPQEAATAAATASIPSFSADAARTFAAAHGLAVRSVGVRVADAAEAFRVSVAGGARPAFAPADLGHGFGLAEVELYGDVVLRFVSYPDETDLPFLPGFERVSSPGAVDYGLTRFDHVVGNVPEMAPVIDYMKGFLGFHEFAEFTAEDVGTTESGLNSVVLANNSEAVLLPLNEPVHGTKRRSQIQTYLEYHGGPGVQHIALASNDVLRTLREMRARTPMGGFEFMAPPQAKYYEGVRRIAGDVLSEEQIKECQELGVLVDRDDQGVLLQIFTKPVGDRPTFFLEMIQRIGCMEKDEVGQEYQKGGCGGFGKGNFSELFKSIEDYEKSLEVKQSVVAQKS
Chain of FMP 37 SEQ ID No 9 (A8R3H6 entry or part of it): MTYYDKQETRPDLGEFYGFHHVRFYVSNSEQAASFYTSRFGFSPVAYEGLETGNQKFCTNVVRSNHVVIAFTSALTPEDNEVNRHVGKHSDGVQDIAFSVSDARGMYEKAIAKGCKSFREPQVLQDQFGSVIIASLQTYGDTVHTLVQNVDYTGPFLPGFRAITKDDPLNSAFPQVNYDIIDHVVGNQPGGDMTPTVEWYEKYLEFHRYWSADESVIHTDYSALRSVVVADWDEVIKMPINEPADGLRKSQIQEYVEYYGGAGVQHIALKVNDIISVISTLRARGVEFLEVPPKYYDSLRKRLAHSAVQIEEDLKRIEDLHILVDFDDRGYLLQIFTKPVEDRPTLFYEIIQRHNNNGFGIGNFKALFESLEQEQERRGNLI
Chain of PfHPPD Evo 41 SEQ ID No 29 (P80064 1-354 with tags or gaps with the stated changes limits assumed): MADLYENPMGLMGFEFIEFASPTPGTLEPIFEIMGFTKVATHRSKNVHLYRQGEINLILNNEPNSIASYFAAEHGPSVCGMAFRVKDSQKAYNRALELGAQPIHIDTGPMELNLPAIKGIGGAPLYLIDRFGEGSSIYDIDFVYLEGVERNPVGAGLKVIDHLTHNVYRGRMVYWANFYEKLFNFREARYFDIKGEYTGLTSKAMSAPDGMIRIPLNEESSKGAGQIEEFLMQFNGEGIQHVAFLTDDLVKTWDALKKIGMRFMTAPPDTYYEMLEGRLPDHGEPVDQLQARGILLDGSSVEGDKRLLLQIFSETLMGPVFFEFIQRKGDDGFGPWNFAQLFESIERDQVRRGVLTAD

Cc1nnc(NC(=O)c2ccc(C(F)(F)F)c(S(C)(=O)=O)c2C)o1 [Compound 2-145]
IC50 (Avena HPPD SEQ ID No 2): 1.58 µM
IC50 (FMP 37 SEQ ID No 9): 10 µM
IC50 [1]: 5.01 µM
IC50 [2]: 5.01 µM
Number of plants categorized herbicide tolerance “0” (marginal; 41%-100% damaged leaf area) (wild type soybean Merlin; Merlin (wt), 6.25 g Al/ha): 4
Number of plants categorized herbicide tolerance “1” (moderate; 26%-40% damaged leaf area) (wild type soybean Merlin; Merlin (wt), 6.25 g Al/ha): 0
Number of plants categorized herbicide tolerance “2” (good; 16%-25% damaged leaf area) (wild type soybean Merlin; Merlin (wt), 6.25 g Al/ha): 0
Number of plants categorized herbicide tolerance “3” (high; less than or equal to 15% damaged leaf area) (wild type soybean Merlin; Merlin (wt), 6.25 g Al/ha): 0
Number of plants categorized herbicide tolerance “0” (marginal; 41%-100% damaged leaf area) (wild type soybean Merlin; Merlin, 25 g Al/ha): 4
Number of plants categorized herbicide tolerance “1” (moderate; 26%-40% damaged leaf area) (wild type soybean Merlin; Merlin, 25 g Al/ha): 0
Number of plants categorized herbicide tolerance “2” (good; 16%-25% damaged leaf area) (wild type soybean Merlin; Merlin, 25 g Al/ha): 0
Number of plants categorized herbicide tolerance “3” (high; less than or equal to 15% damaged leaf area) (wild type soybean Merlin; Merlin, 25 g Al/ha): 0
Number of plants categorized herbicide tolerance “0” (marginal; 41%-100% damaged leaf area) (wild type soybean Thorne; Thorne (wt), 6.25 g Al/ha): 4
Number of plants categorized herbicide tolerance “1” (moderate; 26%-40% damaged leaf area) (wild type soybean Thorne; Thorne (wt), 6.25 g Al/ha): 0
Number of plants categorized herbicide tolerance “2” (good; 16%-25% damaged leaf area) (wild type soybean Thorne; Thorne (wt), 6.25 g Al/ha): 0
Number of plants categorized herbicide tolerance “3” (high; less than or equal to 15% damaged leaf area) (wild type soybean Thorne; Thorne (wt), 6.25 g Al/ha): 0
Number of plants categorized herbicide tolerance “0” (marginal; 41%-100% damaged leaf area) (wild type soybean Thorne; Thorne, 25 g Al/ha): 4
Number of plants categorized herbicide tolerance “1” (moderate; 26%-40% damaged leaf area) (wild type soybean Thorne; Thorne, 25 g Al/ha): 0
Number of plants categorized herbicide tolerance “2” (good; 16%-25% damaged leaf area) (wild type soybean Thorne; Thorne, 25 g Al/ha): 0
Number of plants categorized herbicide tolerance “3” (high; less than or equal to 15% damaged leaf area) (wild type soybean Thorne; Thorne, 25 g Al/ha): 0
Number of plants categorized herbicide tolerance “0” (marginal; 41%-100% damaged leaf area) ([3]; 6.25 g Al/ha, total 12): 0
Number of plants categorized herbicide tolerance “1” (moderate; 26%-40% damaged leaf area) ([3]; 6.25 g Al/ha, total 12): 0
Number of plants categorized herbicide tolerance “2” (good; 16%-25% damaged leaf area) ([3]; 6.25 g Al/ha, total 12): 0
Number of plants categorized herbicide tolerance “3” (high; less than or equal to 15% damaged leaf area) ([3]; 6.25 g Al/ha, total 12): 12
Number of plants categorized herbicide tolerance “0” (marginal; 41%-100% damaged leaf area) ([3]; 25 g Al/ha, total 16): 1
Number of plants categorized herbicide tolerance “1” (moderate; 26%-40% damaged leaf area) ([3]; 25 g Al/ha, total 16): 1
Number of plants categorized herbicide tolerance “2” (good; 16%-25% damaged leaf area) ([3]; 25 g Al/ha, total 16): 0
Number of plants categorized herbicide tolerance “3” (high; less than or equal to 15% damaged leaf area) ([3]; 25 g Al/ha, total 16): 14
Number of plants categorized herbicide tolerance “0” (marginal; 41%-100% damaged leaf area) ([3]; 50 g Al/ha, total 4): 0
Number of plants categorized herbicide tolerance “1” (moderate; 26%-40% damaged leaf area) ([3]; 50 g Al/ha, total 4): 0
Number of plants categorized herbicide tolerance “2” (good; 16%-25% damaged leaf area) ([3]; 50 g Al/ha, total 4): 1
Number of plants categorized herbicide tolerance “3” (high; less than or equal to 15% damaged leaf area) ([3]; 50 g Al/ha, total 4): 3
Number of plants categorized herbicide tolerance “0” (marginal; 41%-100% damaged leaf area) ([3]; 75 g Al/ha, total 4): 0
Number of plants categorized herbicide tolerance “1” (moderate; 26%-40% damaged leaf area) ([3]; 75 g Al/ha, total 4): 0
Number of plants categorized herbicide tolerance “2” (good; 16%-25% damaged leaf area) ([3]; 75 g Al/ha, total 4): 0
Number of plants categorized herbicide tolerance “3” (high; less than or equal to 15% damaged leaf area) ([3]; 75 g Al/ha, total 4): 4
Number of plants categorized herbicide tolerance “0” (marginal; 41%-100% damaged leaf area) ([4]; 6.25 g Al/ha, total 8): 0
Number of plants categorized herbicide tolerance “1” (moderate; 26%-40% damaged leaf area) ([4]; 6.25 g Al/ha, total 8): 0
Number of plants categorized herbicide tolerance “2” (good; 16%-25% damaged leaf area) ([4]; 6.25 g Al/ha, total 8): 0
Number of plants categorized herbicide tolerance “3” (high; less than or equal to 15% damaged leaf area) ([4]; 6.25 g Al/ha, total 8): 8
Number of plants categorized herbicide tolerance “0” (marginal; 41%-100% damaged leaf area) ([4]; 25 g Al/ha, total 12): 0
Number of plants categorized herbicide tolerance “1” (moderate; 26%-40% damaged leaf area) ([4]; 25 g Al/ha, total 12): 0
Number of plants categorized herbicide tolerance “2” (good; 16%-25% damaged leaf area) ([4]; 25 g Al/ha, total 12): 0
Number of plants categorized herbicide tolerance “3” (high; less than or equal to 15% damaged leaf area) ([4]; 25 g Al/ha, total 12): 12
Number of plants categorized herbicide tolerance “0” (marginal; 41%-100% damaged leaf area) ([4]; 50 g Al/ha, total 4): 0
Number of plants categorized herbicide tolerance “1” (moderate; 26%-40% damaged leaf area) ([4]; 50 g Al/ha, total 4): 0
Number of plants categorized herbicide tolerance “2” (good; 16%-25% damaged leaf area) ([4]; 50 g Al/ha, total 4): 0
Number of plants categorized herbicide tolerance “3” (high; less than or equal to 15% damaged leaf area) ([4]; 50 g Al/ha, total 4): 4
Number of plants categorized herbicide tolerance “0” (marginal; 41%-100% damaged leaf area) ([4]; 75 g Al/ha, total 4): 0
Number of plants categorized herbicide tolerance “1” (moderate; 26%-40% damaged leaf area) ([4]; 75 g Al/ha, total 4): 0
Number of plants categorized herbicide tolerance “2” (good; 16%-25% damaged leaf area) ([4]; 75 g Al/ha, total 4): 0
Number of plants categorized herbicide tolerance “3” (high; less than or equal to 15% damaged leaf area) ([4]; 75 g Al/ha, total 4): 4
Number of plants categorized herbicide tolerance “0” (marginal; 41%-100% damaged leaf area) ([5]; 6.25 g Al/ha, total 12): 1
Number of plants categorized herbicide tolerance “1” (moderate; 26%-40% damaged leaf area) ([5]; 6.25 g Al/ha, total 12): 0
Number of plants categorized herbicide tolerance “2” (good; 16%-25% damaged leaf area) ([5]; 6.25 g Al/ha, total 12): 0
Number of plants categorized herbicide tolerance “3” (high; less than or equal to 15% damaged leaf area) ([5]; 6.25 g Al/ha, total 12): 11
Number of plants categorized herbicide tolerance “0” (marginal; 41%-100% damaged leaf area) ([5]; 25 g Al/ha, total 16): 0
Number of plants categorized herbicide tolerance “1” (moderate; 26%-40% damaged leaf area) ([5]; 25 g Al/ha, total 16): 2
Number of plants categorized herbicide tolerance “2” (good; 16%-25% damaged leaf area) ([5]; 25 g Al/ha, total 16): 3
Number of plants categorized herbicide tolerance “3” (high; less than or equal to 15% damaged leaf area) ([5]; 25 g Al/ha, total 16): 11
Number of plants categorized herbicide tolerance “0” (marginal; 41%-100% damaged leaf area) ([5]; 50 g Al/ha, total 4): 0
Number of plants categorized herbicide tolerance “1” (moderate; 26%-40% damaged leaf area) ([5]; 50 g Al/ha, total 4): 0
Number of plants categorized herbicide tolerance “2” (good; 16%-25% damaged leaf area) ([5]; 50 g Al/ha, total 4): 1
Number of plants categorized herbicide tolerance “3” (high; less than or equal to 15% damaged leaf area) ([5]; 50 g Al/ha, total 4): 3
Number of plants categorized herbicide tolerance “0” (marginal; 41%-100% damaged leaf area) ([5]; 75 g Al/ha, total 4): 0
Number of plants categorized herbicide tolerance “1” (moderate; 26%-40% damaged leaf area) ([5]; 75 g Al/ha, total 4): 1
Number of plants categorized herbicide tolerance “2” (good; 16%-25% damaged leaf area) ([5]; 75 g Al/ha, total 4): 0
Number of plants categorized herbicide tolerance “3” (high; less than or equal to 15% damaged leaf area) ([5]; 75 g Al/ha, total 4): 3
Average maximum phytotoxicity scoring ([6]; cotton event Evo33/1): 3 (“3” = high tolerance; 0%-10% damaged leaf area)
Average maximum phytotoxicity scoring ([6]; cotton event Evo33/2): 3 (“3” = high tolerance; 0%-10% damaged leaf area)
Average maximum phytotoxicity scoring ([6]; cotton event Evo33/3): 3 (“3” = high tolerance; 0%-10% damaged leaf area)
Average maximum phytotoxicity scoring ([6]; cotton event Evo33/4): 3 (“3” = high tolerance; 0%-10% damaged leaf area)
Average maximum phytotoxicity scoring ([6]; cotton event Evo33/5): 3 (“3” = high tolerance; 0%-10% damaged leaf area)
Average maximum phytotoxicity scoring ([6]; cotton event Evo33/6): 3 (“3” = high tolerance; 0%-10% damaged leaf area)
